Like-named read-outs stand apart in the source and are kept apart here.
Legend:
[1] = target: T1, interaction between ICAM-1 and LFA-1 (Homo sapiens, UniProt P05107+P20701); test: Adhesion of JY cells to TNF-α stimulated human endothelial cells (JY-EC); format: cell-based; conditions: for IC50: JY cells on TNF-α stimulated human endothelial cells, 30 minutes at 37° C., read-out: JY-EC IC50 (concentration at which adhesion is inhibited to 50% of control level)
T1 construct: endogenous in cells; host or cells: JY (human B cell line) for LFA-1; TNF-alpha stimulated HUVEC (Clonetics) for ICAM-1
T1 sequence (P20701 26-1170): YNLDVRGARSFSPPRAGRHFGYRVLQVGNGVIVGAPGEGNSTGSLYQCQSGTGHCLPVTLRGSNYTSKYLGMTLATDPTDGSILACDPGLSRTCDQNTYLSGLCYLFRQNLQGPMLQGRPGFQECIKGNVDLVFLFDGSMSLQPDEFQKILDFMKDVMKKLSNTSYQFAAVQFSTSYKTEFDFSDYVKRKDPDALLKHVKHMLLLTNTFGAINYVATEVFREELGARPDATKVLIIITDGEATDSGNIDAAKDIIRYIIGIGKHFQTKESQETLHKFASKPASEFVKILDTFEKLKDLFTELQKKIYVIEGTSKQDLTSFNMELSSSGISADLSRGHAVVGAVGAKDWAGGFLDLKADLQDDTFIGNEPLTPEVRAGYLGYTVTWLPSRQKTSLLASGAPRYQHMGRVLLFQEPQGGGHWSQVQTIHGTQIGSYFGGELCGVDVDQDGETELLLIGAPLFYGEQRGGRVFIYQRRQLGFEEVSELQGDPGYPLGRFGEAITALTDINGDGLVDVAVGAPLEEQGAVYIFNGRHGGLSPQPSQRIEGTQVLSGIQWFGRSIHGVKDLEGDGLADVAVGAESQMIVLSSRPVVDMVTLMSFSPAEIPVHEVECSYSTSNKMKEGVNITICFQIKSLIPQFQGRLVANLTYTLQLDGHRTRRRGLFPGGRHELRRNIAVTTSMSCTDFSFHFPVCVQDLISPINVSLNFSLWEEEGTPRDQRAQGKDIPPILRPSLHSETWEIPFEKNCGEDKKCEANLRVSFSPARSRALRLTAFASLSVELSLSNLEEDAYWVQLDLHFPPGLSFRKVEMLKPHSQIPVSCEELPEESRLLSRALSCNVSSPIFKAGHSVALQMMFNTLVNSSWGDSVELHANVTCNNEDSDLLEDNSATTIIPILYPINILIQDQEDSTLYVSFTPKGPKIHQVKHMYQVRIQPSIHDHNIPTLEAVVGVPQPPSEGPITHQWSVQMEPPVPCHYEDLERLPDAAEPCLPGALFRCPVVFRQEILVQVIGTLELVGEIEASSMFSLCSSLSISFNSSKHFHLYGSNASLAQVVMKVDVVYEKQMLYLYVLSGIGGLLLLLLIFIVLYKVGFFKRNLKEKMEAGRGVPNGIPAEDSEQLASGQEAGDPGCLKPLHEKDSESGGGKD
T1 sequence (P05107 23-769): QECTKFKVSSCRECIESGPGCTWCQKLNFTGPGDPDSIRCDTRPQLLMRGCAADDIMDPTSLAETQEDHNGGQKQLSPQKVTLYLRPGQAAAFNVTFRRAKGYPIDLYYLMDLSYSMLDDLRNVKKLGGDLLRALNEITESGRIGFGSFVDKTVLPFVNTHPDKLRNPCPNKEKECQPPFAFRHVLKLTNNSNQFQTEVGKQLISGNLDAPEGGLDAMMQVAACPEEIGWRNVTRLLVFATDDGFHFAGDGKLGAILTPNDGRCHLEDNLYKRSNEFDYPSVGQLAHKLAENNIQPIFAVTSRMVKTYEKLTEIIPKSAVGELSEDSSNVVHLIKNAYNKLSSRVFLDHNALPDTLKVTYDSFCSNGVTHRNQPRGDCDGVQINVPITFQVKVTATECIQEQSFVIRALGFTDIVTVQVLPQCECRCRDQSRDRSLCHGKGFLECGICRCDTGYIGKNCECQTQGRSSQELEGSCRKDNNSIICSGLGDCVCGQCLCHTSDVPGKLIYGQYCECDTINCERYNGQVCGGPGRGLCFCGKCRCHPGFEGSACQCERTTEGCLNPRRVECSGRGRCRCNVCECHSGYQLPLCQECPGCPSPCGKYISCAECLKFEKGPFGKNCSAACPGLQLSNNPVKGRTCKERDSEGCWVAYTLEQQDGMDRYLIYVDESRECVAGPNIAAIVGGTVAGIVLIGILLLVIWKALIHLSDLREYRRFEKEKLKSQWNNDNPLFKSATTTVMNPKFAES
From the text: In order to establish the pharmacological properties of the compounds of formula (I) as a method of treatment for immuno-inflammatory disease in a patient suffering therefrom--such diseases being for the most part, but not limited exclusively to, graft rejection, ischemia reperfusion, asthma/allergy, delayed type hypersensitivity and AIDS--an in vitro assay was used to determine the effect of the compounds of the present invention on β2 mediated adhesion. Because human endothelial cells (EC's) express low levels of ICAM-1 on their surface and stimulation with TNF-α increases its expression, adhesion of lymphocytes can be measured following the principal assay design as described below for the human B cell line JY.
A. Cell Adhesion to Stimulated Endothelial Cells
Human umbilical vein endothelial cells (HUVEC) were purchased from Clonetics (San Diego, Calif.) at passage number 2. The cells were growth on 0.5% porcine skin gelatin pre-coated flasks (Sigma, St. Louis, Mo.) in EGM-UV media (Clonetics, San Diego, Calif.) supplemented with 10% fetal bovine serum. Cells are re-fed every 2-3 days, reaching confluence by day 4 to 6. […] The endothelial cells are not used following passage 7. Endothelial cells are grown to confluency in 96-well micro-titer assay plate.
The human B cell line JY was cultured in RPMI media containing 10% fetal calf serum at 37° C. in a humidified CO2 atmosphere. JY cells are loaded with the fluorescent dye indicator BCECF as follows: JY cells are washed twice with HBSS and cells are then re-suspended in HBSS at 5×10^6 cells/ml; BCECF-AM (Molecular Probes), stock concentration=1 mg/ml in DMSO, is added to the JY cells to a final concentration of 2 μg/ml; cells are incubated in the dark at 37° C. for 30-45 minutes; washed twice with HBSS and used in the assay.
The compounds presented in this invention are typically dissolved in 2.5 mg HSA/ml DME at four times the assay concentration and pH adjusted with 7.5% Na bicarbonate as needed. A confluent monolayer of human EC's in microtiter plates is stimulated with 50 U/ml TNF-α for 20 hours, and on the next day washed twice with DMEM-HSA before use. The EC's may be fixed by treatment with 3% paraformaldehyde. The assay plate is placed on ice, and test compound is added to quadruplicate wells, then all wells received 2.5×10^5 labeled JY cells and an optional stimulus (e.g. phorbol ester). Plates are incubated for 30 minutes at 37° C. in a CO2 incubator. Plates are washed four times with 100 μl PBS/well and the fluorescence of the adherent cells is measured using a fluorescence reader. Fluorescence in each well is measured as Arbitrary Fluorescence Units and percent adhesion in the absence of peptide is adjusted to 100% and the percent adhesion in the presence of peptides is calculated. Inhibitory concentrations (IC50) are determined based on 100% adhesion of cells that were incubated in the absence of drugs. Stimulation of protein kinase C by phorbol esters such as […] (PMA) increases the observed adhesion approximately 5-fold. This PMA induced adhesion is 100% blocked by anti-LFA-1 or anti-CD18 antibodies and about 75-80% by anti-ICAM-1 antibodies, while it is unaffected by antibodies to Mac-1, α4 or control antibodies. Thus, this assay measures preferentially the interaction between ICAM-1 and LFA-1.

[2] = test system: U937 cells; format: cell-based
From the text: (§1) The activity in the assay was not due to cytotoxic activity of the compounds.

[3] = test system: JY cells; test: Proliferation of JY cells (cytotoxicity evaluation); format: cell-based, human
From the text: as §1

[4] = test system: rhinovirus; conditions: Martin, S. D. et al.; cited from earlier work

Row | Molecule | IC50 [1] [µM] | also measured
1 | O=S(=O)(c1ccc2ncccc2c1)N1CC2CC3CC(C2)CC1C3 [Example 31, 4-(6-Quinolinesulfonyl)-4-azahomoadamantane] | 5 | 
2 | CC(=O)Oc1cccc2cc(S(=O)(=O)NC34CC5CC(CC(C5)C3)C4)ccc12 [Example 15, 1-(5-Acetoxy-2-naphthylsulfonyl)-1-aminoadamantane] | 56 | 
3 | O=S(=O)(NC12CC3CC(CC(C3)C1)C2)c1ccc2c(Cl)cccc2c1 [Example 3, 1-(5-Chloro-2-naphthylsulfonyl)-1-aminoadamantane] | 3 | inhibition of proliferation of U937 cells [2]: did not inhibit the proliferation of JY cells or U937 cells; inhibition of proliferation of JY cells ([3]; at concentrations active in the adhesion assay, measured after 20 hours): did not inhibit the proliferation of JY cells
4 | O=S(=O)(c1ccc2ncccc2c1)N1CC2CCC(CC2)C1 [Example 29, 3-(6-Quinolinesulfonyl)-3-azabicyclo[3.2.2]nonane] | 8 | 
5 | Nc1cccc2cc(S(=O)(=O)N3CC4CCC(CC4)C3)ccc12 [Example 35, 3-(5-Amino-2-naphthylsulfonyl)-3-azabicyclo[3.2.2]nonane] | 13.6 | 
6 | O=C(O)C12CC3CC(CC(NS(=O)(=O)c4ccc5c(Cl)cccc5c4)(C3)C1)C2 [Example 24, 1-(5-Chloro-2-naphthylsulfonyl)-1-amino-3-adamantane-carboxylic acid] | 136 | 
7 | O=S(=O)(NC12CC3CC(CC(C3)C1)C2)c1ccc2ncccc2c1 [Example 30, 1-(6-Quinolinesulfonyl)-1-aminoadamantane] | 23 | 
8 | CCCCCCCCCCCCCC(=O)O[C@@H]1[C@@H](C)[C@@]2(O)[C@@H](C=C(CO)C[C@]3(O)C(=O)C(C)=C[C@@H]23)[C@@H]2C(C)(C)[C@]12OC(C)=O [13,14-phorbol myristate acetate (PMA), 13,14-phorbol myristate acetate, reference compound] |  | increase of observed adhesion ([1]; stimulation of protein kinase C by PMA): approximately 5 fold
9 | O=S(=O)(c1ccc2c(Cl)cccc2c1)N1CC2CCC(C2)C1 [Example 17, 3-(5-Chloro-2-naphthylsulfonyl)-3-azabicyclo[3.2.1]-octane] | 15 | 
10 | O=S(=O)(c1ccc2c(Cl)cccc2c1)N1CC2CC1CS2 (stereo not drawn) [Example 20, 5-(5-Chloro-2-naphthylsulfonyl-2-thia-5-azabicyclo-2.2.1]heptane] | 6 | 
11 | O=S(=O)(c1ccc2c(Cl)cccc2c1)N1CC2CCC(CC2)C1 [Example 5, 3-(5-Chloro-2-naphthylsulfonyl)-3-azabicyclo[3.2.2]nonane] | 0.5 | inhibition of proliferation of U937 cells [2]: did not inhibit the proliferation of JY cells or U937 cells; inhibition of proliferation of JY cells [3]: did not inhibit the proliferation of JY cells
12 | O=S(=O)(c1cc(OCc2cccnc2)c2ccccc2c1)N1CC2CCC(CC2)C1 [Example 54, 3-[1-(3-Pyridinylmethoxy)-3-naphthylsulfonyl]-3-azabicyclo[3.2.2]nonane] | 4.4 | 
13 | O=S(=O)(c1ccc2c(Cl)cccc2c1)N1CC2CC3CC(C2)CC1C3 [Example 18, 4-(5-Chloro-2-naphthylsulfonyl)-4-azahomoadamantane] | 0.25 | 
14 | O=S(=O)(c1cc(OCc2cccnc2)c2ccccc2c1)N1CC2CC3CC(C2)CC1C3 [Example 55, 4-[1-(3-Pyridinylmethoxy)-3-naphthylsulfonyl]-4-azahomoadamantane] | 2.1 | 
15 | O=S(=O)(c1ccc2c(Cl)cccc2c1)N1CC2CC1CO2 (stereo not drawn) [Example 21, 5-(5-Chloro-2-naphthylsulfonyl)-2-oxa-5-azabicyclo-[2.2.1]heptane] | 86 | 
16 | COc1ccc(S(=O)(=O)N2CC3CCC(CC3)C2)c2ccccc12 [Example 44, 3-(4-Methoxy-1-naphthylsulfonyl)-3-azabicyclo[3.2.2]nonane] | 1.6 | 
17 | soluble ICAM-1: soluble ICAM-1, specific inhibitor of rhinovirus infection (protein, UniProt P05362 28-480, looked up, extracellular domain) extracellular domain: QTSVSPSKVILPRGGSVLVTCSTSCDQPKLLGIETPLPKKELLLPGNNRKVYELSNVQEDSQPMCYSNCPDGQSTAKTFLTVYWTPERVELAPLPSWQPVGKNLTLRCQVEGGAPRANLTVVLLRGEKELKREPAVGEPAEVTTTVLVRRDHHGANFSCRTELDLRPQGLELFENTSAPYQLQTFVLPATPPQLVSPRVLEVDTQGTVVCSLDGLFPVSEAQVHLALGDQRLNPTVTYGNDSFSAKASVSVTAEDEGTQRLTCAVILGNQSQETLQTVTIYSFPAPNVILTKPEVSEGTEVTVKCEAHPRAKVTLNGVPAQPLGPRAQLLLKATPEDNGRSFSCSATLEVAGQLIHKNQTRELRVLYGPRLDERDCPGNWTWPENSQQTPMCQAWGNPLPELKCLKDGTFPLPIGESVTVTRDLEGTYLCRARSTQGEVTRKVTVNVLSPRYE |  | inhibition of rhinovirus infection [4]: act as specific inhibitor of rhinovirus infection

Reference: patent US5707985A, “Naphthyl-, quinolyl- and isoquinolyl- sulfonamide derivatives as cell adhesion modulators” (Tanabe Seiyaku Co. Ltd., priority 1995, dated 1998)
